Experimental data as given in US8096982B2, “Method and apparatus to enhance optical transparency of biological tissues” (priority 1998, dated 2012).

How the values were obtained:
[1] = system: sclera; type: in vivo, rabbit; conditions: for signs of inflammation on follow up examination: rabbit, in vivo; for time for sclera to turn clear: topical drops on exposed sclera, conjunctiva surgically separated
Procedure: In order to assess the longitudinal effects of topical administration of glycerol or diatrizoate meglumine acid on the sclera, in-vivo experiments were carried out on two rabbits, and the eyes were examined for signs of inflammation once a day for approximately 1 week.
Each rabbit was put under anesthesia using an intra-muscular injection of Rompin® and Ketamine®. The conjunctiva serves as the permeability barrier for the sclera, and therefore, the conjunctiva was surgically separated from the sclera and the distal surface of the sclera was exposed. Topical drops of glycerol were administered on one eye, and of diatrizoate meglumine acid in the contra-lateral eye, for both rabbits. In the case of glycerol, the sclera turned clear, almost instantaneously (in less than 5 seconds), whereas in the case of diatrizoate meglumine acid, the sclera turned clear in approximately 1 minute. The conjunctiva was stretched over the sclera, again, and stay sutures were used to re-attach the conjunctiva to the limbal region. Ocumycing was administered topically to both eyes which had undergone surgery, to prevent infection. After approximately 5-10 minutes, the sclera in both eyes became opaque, again.

[2] = system: porcine sclera; test: Diffuse transmission through excised porcine sclera before and after submersion in clarifying agent; conditions: maximum increase, at 750 nm, range 350-750 nm
Procedure: Porcine eyes were enucleated immediately post-mortem, and were transported to the laboratory in a wet gauze pad, held at 4° C. during transport in a well-insulated cooler. Each eye was inflated with saline. Limbal conjunctiva and Tenons capsule were dissected and excised using a pair of blunt Wescott scissors. A No. 64 Beaver blade was then used to outline 20 mm×20 mm sections of the sclera from the limbus to the equator of the globe. Incisions were deepened to the supra-choroidal space. Sections of sclera were then lifted off the intact choroid and ciliary body. Scleral thickness was measured and was determined to be 1.65 mm on average.
Three prepared sections of sclera were each then placed between quartz slides, and then between two flat aluminum plates. The tissue sample assembly was then fixed against the input port of a diffuse reflectance accessory (integrating sphere) of a Varian Cary 5E™ UV-Vis-NIR spectrophotometer, and diffuse transmission was measured for wavelengths ranging from 350 nm to 750 nm. The three tissue samples were then submerged in separate containers of glycerol, the first being submerged for 5 minutes, the second for 10 minutes, and the third for 15 minutes. Each sample was then again placed in the tissue assembly and was fixed against the input port of the diffuse reflectance accessory of the spectrophotometer, and the diffuse transmission was measured again over the same wavelength range as above. These measurements were also carried out, using three other scleral samples, and diatrizoate meglumine acid as the IRIM agent.

[3] = Optical transmission characteristics of the agent in a cuvette (UV-Vis-NIR spectrophotometer); type: physicochemical
Procedure: Diatrizoate meglumine acid, which is commercially known as Hypaque®, is a radiographic injection solution. […] In an experiment, a cuvette was filled with diatrizoate meglumine acid and its optical transmission characteristics were evaluated using a Varian CARY 5E™ UV-Vis-NIR spectrophotometer.

[4] = system: edematous corneas; conditions: glycerol applied topically in concentrations from 50% to 100%; cited from earlier work
[5] = system: human skin; conditions: approximately 8 minutes after topical administration; stratum corneum tape-stripped; 480-800 nm
Procedure: Two skin surfaces on the forearm were shaved and cleaned prior to measurements. A tape-strip method was used to remove the stratum corneum. […] The topical drugs administered formed an approximate circle of 1 cm in diameter. The drugs were left to diffuse into the tissue for approximately 8 minutes.
Surface reflectance measurements were made immediately after tape stripping of the skin (prior to topical administration of the drugs), and subsequently, approximately 8 minutes after topical administration of the drugs. A CSI Portable Diffuse Reflectance Spectrometer, developed by Canfield Scientific Instruments, Inc. (Fairfield, N.J.), was used for these surface measurements. […] One leg of the bifurcated fiber optic bundle is coupled to the lamp and the other leg is coupled to the spectrometer. The joined end of the fiber bundle (approximately 3 mm in diameter) was placed in contact with the skin surface from which measurements were made. The measurements were made across a 330 nm to 840 nm spectral range, with a 0.5 nm resolution. The integration time for the measurements was set at 50 kHz.
The tape stripping of the skin causes a mild irritation of the skin, leading to a transient erythema.

Row | signs of inflammation on follow up examination [1] | optical transmission ([3]; wavelengths above 400 nm) | optical transmission ([3]; wavelengths below approximately 400 nm) | SMILES | time for sclera to turn clear [1] | increase in diffuse transmission through the sclera ([2]; submerged 5 minutes) | increase in diffuse transmission through the sclera ([2]; submerged 10 minutes) | increase in diffuse transmission through the sclera ([2]; submerged 15 minutes) | clearing of edematous corneas following topical administration [4] | increase in absorbance of tissue, in-vivo [5]
1 | no signs of inflammation | very high transmission | very low transmission | CC(=O)Nc1c(I)c(NC(C)=O)c(I)c(C(=O)O)c1I.CNC[C@H](O)[C@@H](O)[C@H](O)[C@H](O)CO [diatrizoate meglumine acid] | approximately 1 minute | up to 200% | ≤ 395% | ≤ 975% |  | 
2 | no signs of inflammation |  |  | OCC(O)CO [glycerol] | less than 5 seconds | up to 240% | ≤ 660% | ≤ 1090% | effective in clearing edematous corneas, within two minutes | up to 60.5%
